Data as given in ChEMBL document CHEMBL1255475, “Mutant prevention concentrations of four carbapenems against gram-negative rods” (2010).
Values after ≈ are worked out from the molar mass of the structure shown.

What was measured:
Escherichia coli [1] = test: Antibacterial activity against beta-lactamase-negative Escherichia coli E408 incubated up to 7 days by agar dilution method; format: functional; settings: E408, 168 h
Escherichia coli [2] = test: Ratio of mutant prevention concentration to minimum Inhibitory concentration for beta-lactamase-negative Escherichia coli E344; format: functional
Escherichia coli [3] = test: Ratio of mutant prevention concentration to minimum Inhibitory concentration for beta-lactamase-negative Escherichia coli E346; format: functional
Escherichia coli [4] = test: Ratio of mutant prevention concentration to minimum Inhibitory concentration for beta-lactamase-negative Escherichia coli E348; format: functional
Escherichia coli [5] = test: Ratio of mutant prevention concentration to minimum Inhibitory concentration for beta-lactamase-negative Escherichia coli E350; format: functional
Escherichia coli [6] = test: Ratio of mutant prevention concentration to minimum Inhibitory concentration for beta-lactamase-positive ESBL-positive Escherichia coli E458; format: functional
Escherichia coli [7] = test: Ratio of mutant prevention concentration to minimum Inhibitory concentration for beta-lactamase-positive ESBL-negative Escherichia coli E415; format: functional
Escherichia coli [8] = test: Ratio of mutant prevention concentration to minimum Inhibitory concentration for beta-lactamase-positive ESBL-negative Escherichia coli E437; format: functional
Escherichia coli [9] = test: Ratio of mutant prevention concentration to minimum Inhibitory concentration for beta-lactamase-positive ESBL-positive Escherichia coli E446; format: functional
Escherichia coli [10] = test: Ratio of mutant prevention concentration to minimum Inhibitory concentration for beta-lactamase-positive ESBL-positive Escherichia coli E456; format: functional
Escherichia coli [11] = test: Ratio of mutant prevention concentration to minimum Inhibitory concentration for beta-lactamase-positive ESBL-positive Escherichia coli E451; format: functional
Escherichia coli [12] = test: Ratio of mutant prevention concentration to minimum Inhibitory concentration for beta-lactamase-positive ESBL-negative Escherichia coli E483; format: functional
Klebsiella pneumoniae [13] = test: Ratio of mutant prevention concentration to minimum Inhibitory concentration for beta-lactamase-negative Klebsiella pneumoniae E359; format: functional
Klebsiella pneumoniae [14] = test: Ratio of mutant prevention concentration to minimum Inhibitory concentration for beta-lactamase-negative Klebsiella pneumoniae E360; format: functional
Klebsiella pneumoniae [15] = test: Ratio of mutant prevention concentration to minimum Inhibitory concentration for beta-lactamase-negative Klebsiella pneumoniae E419; format: functional
Klebsiella pneumoniae [16] = test: Ratio of mutant prevention concentration to minimum Inhibitory concentration for beta-lactamase-negative Klebsiella pneumoniae E361; format: functional
Klebsiella pneumoniae [17] = test: Ratio of mutant prevention concentration to minimum Inhibitory concentration for beta-lactamase-negative Klebsiella pneumoniae E418; format: functional
Klebsiella pneumoniae [18] = test: Ratio of mutant prevention concentration to minimum Inhibitory concentration for beta-lactamase-positive ESBL-negative Klebsiella pneumoniae E509; format: functional
Klebsiella pneumoniae [19] = test: Ratio of mutant prevention concentration to minimum Inhibitory concentration for beta-lactamase-positive ESBL-negative Klebsiella pneumoniae E472; format: functional
Klebsiella pneumoniae [20] = test: Ratio of mutant prevention concentration to minimum Inhibitory concentration for beta-lactamase-positive ESBL-negative Klebsiella pneumoniae E479; format: functional
Klebsiella pneumoniae [21] = test: Ratio of mutant prevention concentration to minimum Inhibitory concentration for beta-lactamase-positive ESBL-negative Klebsiella pneumoniae E473; format: functional
Klebsiella pneumoniae [22] = test: Ratio of mutant prevention concentration to minimum Inhibitory concentration for beta-lactamase-positive ESBL-negative Klebsiella pneumoniae E477; format: functional
Klebsiella pneumoniae [23] = test: Ratio of mutant prevention concentration to minimum Inhibitory concentration for beta-lactamase-negative Klebsiella pneumoniae E420; format: functional
Klebsiella pneumoniae [24] = test: Ratio of mutant prevention concentration to minimum Inhibitory concentration for beta-lactamase-positive ESBL-positive Klebsiella pneumoniae E457; format: functional
Klebsiella pneumoniae [25] = test: Ratio of mutant prevention concentration to minimum Inhibitory concentration for beta-lactamase-positive ESBL-negative Klebsiella pneumoniae E507; format: functional
Klebsiella pneumoniae [26] = test: Ratio of mutant prevention concentration to minimum Inhibitory concentration for beta-lactamase-positive ESBL-negative Klebsiella pneumoniae E511; format: functional
Pseudomonas aeruginosa [27] = test: Antibacterial activity against Pseudomonas aeruginosa P369 incubated up to 7 days by agar dilution method; format: functional; settings: P369, 168 h
Pseudomonas aeruginosa [28] = test: Antibacterial activity against Pseudomonas aeruginosa P335 incubated up to 7 days by agar dilution method; format: functional; settings: P335, 168 h
Pseudomonas aeruginosa [29] = test: Antibacterial activity against Pseudomonas aeruginosa P319 incubated up to 7 days by agar dilution method; format: functional; settings: P319, 168 h
Pseudomonas aeruginosa [30] = test: Antibacterial activity against Pseudomonas aeruginosa P323 incubated up to 7 days by agar dilution method; format: functional; settings: P323, 168 h
Pseudomonas aeruginosa [31] = test: Antibacterial activity against Pseudomonas aeruginosa P338 incubated up to 7 days by agar dilution method; format: functional; settings: P338, 168 h
Pseudomonas aeruginosa [32] = test: Antibacterial activity against Pseudomonas aeruginosa P328 incubated up to 7 days by agar dilution method; format: functional; settings: P328, 168 h
Pseudomonas aeruginosa [33] = test: Antibacterial activity against Pseudomonas aeruginosa P353 incubated up to 7 days by agar dilution method; format: functional; settings: P353, 168 h
Acinetobacter baumannii [34] = test: Antibacterial activity against Acinetobacter baumannii A864 assessed as mutant prevention concentration after overnight incubation; format: functional
Acinetobacter baumannii [35] = test: Antibacterial activity against Acinetobacter baumannii A865 assessed as mutant prevention concentration after overnight incubation; format: functional
Pseudomonas aeruginosa [36] = test: Antibacterial activity against Pseudomonas aeruginosa P363 incubated up to 7 days by agar dilution method; format: functional; settings: P363, 168 h
Pseudomonas aeruginosa [37] = test: Antibacterial activity against Pseudomonas aeruginosa P370 incubated up to 7 days by agar dilution method; format: functional; settings: P370, 168 h
Pseudomonas aeruginosa [38] = test: Antibacterial activity against Pseudomonas aeruginosa P341 incubated up to 7 days by agar dilution method; format: functional; settings: P341, 168 h
Pseudomonas aeruginosa [39] = test: Antibacterial activity against Pseudomonas aeruginosa P326 incubated up to 7 days by agar dilution method; format: functional; settings: P326, 168 h
Acinetobacter baumannii [40] = test: Antibacterial activity against Acinetobacter baumannii A850 incubated up to 7 days by agar dilution method; format: functional; settings: A850, 168 h
Acinetobacter baumannii [41] = test: Antibacterial activity against Acinetobacter baumannii A897 incubated up to 7 days by agar dilution method; format: functional; settings: A897, 168 h
Acinetobacter baumannii [42] = test: Antibacterial activity against Acinetobacter baumannii A929 incubated up to 7 days by agar dilution method; format: functional; settings: A929, 168 h
Acinetobacter baumannii [43] = test: Antibacterial activity against Acinetobacter baumannii A891 incubated up to 7 days by agar dilution method; format: functional; settings: A891, 168 h
Acinetobacter baumannii [44] = test: Antibacterial activity against Acinetobacter baumannii A849 incubated for 24 h by agar dilution method; settings: A849, 24 h
Acinetobacter baumannii [45] = test: Antibacterial activity against Acinetobacter baumannii A910 incubated for 24 h by agar dilution method; settings: A910, 24 h
Acinetobacter baumannii [46] = test: Antibacterial activity against Acinetobacter baumannii A884 incubated for 24 h by agar dilution method; settings: A884, 24 h
Acinetobacter baumannii [47] = test: Antibacterial activity against Acinetobacter baumannii A928 incubated for 24 h by agar dilution method; settings: A928, 24 h
Acinetobacter baumannii [48] = test: Antibacterial activity against Acinetobacter baumannii A908 incubated for 24 h by agar dilution method; settings: A908, 24 h
Acinetobacter baumannii [49] = test: Antibacterial activity against Acinetobacter baumannii A864 incubated for 24 hrs by agar dilution method; settings: A864, 24 h

## C[C@@H](O)[C@H]1C(=O)N2C(C(=O)O)=C(S[C@@H]3CN[C@H](C(=O)Nc4cccc(C(=O)O)c4)C3)[C@H](C)[C@H]12
Escherichia coli [1]
  MIC: 0.016 µg/mL (≈ 0.0336 µM)
Escherichia coli [2]
  Ratio: 4
Escherichia coli [3]
  Ratio: 4
Escherichia coli [4]
  Ratio: 4
Escherichia coli [5]
  Ratio: 2
Escherichia coli [6]
  Ratio: 16
Escherichia coli [7]
  Ratio: 4
Escherichia coli [8]
  Ratio: 2
Escherichia coli [9]
  Ratio: 4
Escherichia coli [10]
  Ratio: 16
Escherichia coli [11]
  Ratio: 16
Escherichia coli [12]
  Ratio: 16
Klebsiella pneumoniae [13]
  Ratio: 2
Klebsiella pneumoniae [14]
  Ratio: 4
Klebsiella pneumoniae [15]
  Ratio: 2
Klebsiella pneumoniae [16]
  Ratio: 4
Klebsiella pneumoniae [17]
  Ratio: 2
Klebsiella pneumoniae [18]
  Ratio: 4
Klebsiella pneumoniae [19]
  Ratio: 8
Klebsiella pneumoniae [20]
  Ratio: 8
Klebsiella pneumoniae [21]
  Ratio: 4
Klebsiella pneumoniae [22]
  Ratio: 4
Klebsiella pneumoniae [23]
  Ratio: 4
Klebsiella pneumoniae [24]
  Ratio: 4
Klebsiella pneumoniae [25]
  Ratio: 8
Klebsiella pneumoniae [26]
  Ratio: 8

## C[C@@H](O)[C@H]1C(=O)N2C(C(=O)O)=C(S[C@@H]3CN[C@H](CNS(N)(=O)=O)C3)[C@H](C)[C@H]12 [DORIPENEM]
Pseudomonas aeruginosa [27]
  MIC: 0.25 µg/mL (≈ 0.595 µM)
Pseudomonas aeruginosa [28]
  MIC: 2 µg/mL (≈ 4.76 µM)
Pseudomonas aeruginosa [29]
  MIC: 2 µg/mL (≈ 4.76 µM)
Pseudomonas aeruginosa [30]
  MIC: 0.5 µg/mL (≈ 1.19 µM)
Pseudomonas aeruginosa [31]
  MIC: 0.25 µg/mL (≈ 0.595 µM)
Pseudomonas aeruginosa [32]
  MIC: 2 µg/mL (≈ 4.76 µM)
Pseudomonas aeruginosa [33]
  MIC: 0.5 µg/mL (≈ 1.19 µM)
Escherichia coli [1]
  MIC: 0.03 µg/mL (≈ 0.0713 µM)
Escherichia coli [2]
  Ratio: 2
Escherichia coli [3]
  Ratio: 2
Escherichia coli [4]
  Ratio: 2
Escherichia coli [5]
  Ratio: 2
Acinetobacter baumannii [34]
  MPC: 64 µg/mL
Acinetobacter baumannii [35]
  MPC: 64 µg/mL
Escherichia coli [6]
  Ratio: 2
Escherichia coli [7]
  Ratio: 2
Escherichia coli [8]
  Ratio: 2
Escherichia coli [9]
  Ratio: 2
Escherichia coli [10]
  Ratio: 8
Escherichia coli [11]
  Ratio: 2
Escherichia coli [12]
  Ratio: 8
Klebsiella pneumoniae [13]
  Ratio: 2
Klebsiella pneumoniae [14]
  Ratio: 2
Klebsiella pneumoniae [15]
  Ratio: 2
Klebsiella pneumoniae [16]
  Ratio: 2
Klebsiella pneumoniae [17]
  Ratio: 2
Klebsiella pneumoniae [18]
  Ratio: >16
Klebsiella pneumoniae [19]
  Ratio: >16
Klebsiella pneumoniae [20]
  Ratio: >16
Klebsiella pneumoniae [21]
  Ratio: 4
Klebsiella pneumoniae [22]
  Ratio: >16
Klebsiella pneumoniae [23]
  Ratio: 1
Klebsiella pneumoniae [24]
  Ratio: 2
Klebsiella pneumoniae [25]
  Ratio: >16
Klebsiella pneumoniae [26]
  Ratio: >16
Pseudomonas aeruginosa [36]
  MIC: 0.25 µg/mL (≈ 0.595 µM)
Pseudomonas aeruginosa [37]
  MIC: 0.25 µg/mL (≈ 0.595 µM)
Pseudomonas aeruginosa [38]
  MIC: 0.5 µg/mL (≈ 1.19 µM)
Pseudomonas aeruginosa [39]
  MIC: 4 µg/mL (≈ 9.51 µM)
Acinetobacter baumannii [40]
  MIC: 4 µg/mL (≈ 9.51 µM)
Acinetobacter baumannii [41]
  MIC: 0.5 µg/mL (≈ 1.19 µM)
Acinetobacter baumannii [42]
  MIC: 2 µg/mL (≈ 4.76 µM)
Acinetobacter baumannii [43]
  MIC: 0.5 µg/mL (≈ 1.19 µM)
Acinetobacter baumannii [44]
  MIC: 4 µg/mL (≈ 9.51 µM)
Acinetobacter baumannii [45]
  MIC: 2 µg/mL (≈ 4.76 µM)
Acinetobacter baumannii [46]
  MIC: 2 µg/mL (≈ 4.76 µM)
Acinetobacter baumannii [47]
  MIC: 0.5 µg/mL (≈ 1.19 µM)
Acinetobacter baumannii [48]
  MIC: 0.5 µg/mL (≈ 1.19 µM)
Acinetobacter baumannii [49]
  MIC: 8 µg/mL (≈ 19 µM)

## C[C@@H](O)[C@H]1C(=O)N2C(C(=O)O)=C(SCCNC=N)C[C@H]12 [IMIPENEM ANHYDROUS]
Acinetobacter baumannii [34]
  MPC: 64 µg/mL
Acinetobacter baumannii [35]
  MPC: 32 µg/mL

## C[C@@H](O)[C@H]1C(=O)N2C(C(=O)O)=C(S[C@@H]3CN[C@H](C(=O)N(C)C)C3)[C@H](C)[C@H]12 [MEROPENEM]
Pseudomonas aeruginosa [27]
  MIC: 0.5 µg/mL (≈ 1.3 µM)
Pseudomonas aeruginosa [28]
  MIC: 4 µg/mL (≈ 10.4 µM)
Pseudomonas aeruginosa [29]
  MIC: 2 µg/mL (≈ 5.22 µM)
Pseudomonas aeruginosa [30]
  MIC: 0.5 µg/mL (≈ 1.3 µM)
Pseudomonas aeruginosa [31]
  MIC: 0.25 µg/mL (≈ 0.652 µM)
Pseudomonas aeruginosa [32]
  MIC: 2 µg/mL (≈ 5.22 µM)
Pseudomonas aeruginosa [33]
  MIC: 2 µg/mL (≈ 5.22 µM)
Pseudomonas aeruginosa [36]
  MIC: 0.5 µg/mL (≈ 1.3 µM)
Pseudomonas aeruginosa [37]
  MIC: 0.25 µg/mL (≈ 0.652 µM)
Pseudomonas aeruginosa [38]
  MIC: 0.5 µg/mL (≈ 1.3 µM)
Pseudomonas aeruginosa [39]
  MIC: 8 µg/mL (≈ 20.9 µM)
Acinetobacter baumannii [40]
  MIC: 4 µg/mL (≈ 10.4 µM)
Acinetobacter baumannii [41]
  MIC: 0.5 µg/mL (≈ 1.3 µM)
Acinetobacter baumannii [42]
  MIC: 2 µg/mL (≈ 5.22 µM)
Acinetobacter baumannii [43]
  MIC: 1 µg/mL (≈ 2.61 µM)
Acinetobacter baumannii [44]
  MIC: 8 µg/mL (≈ 20.9 µM)
Acinetobacter baumannii [45]
  MIC: 1 µg/mL (≈ 2.61 µM)
Acinetobacter baumannii [46]
  MIC: 4 µg/mL (≈ 10.4 µM)
Acinetobacter baumannii [47]
  MIC: 1 µg/mL (≈ 2.61 µM)
Acinetobacter baumannii [48]
  MIC: 1 µg/mL (≈ 2.61 µM)
Acinetobacter baumannii [49]
  MIC: 8 µg/mL (≈ 20.9 µM)
